Test results published in patent US20050287225A1, “Metal cluster nano-compounds for treating tumor diseases” (priority 2002, published 2005).

Experiments:
MC3 normal bone cells = test: In-vitro cytotoxicity MTT assay (Example 4); type: cell-based; conditions: 72 h, read-out: IC50 cisplatin 72 h
Experimental: (§1) The in-vitro cytotoxicity was studied by means of the MTT assay (Promega), a colorimetric method in which a tetrazolium-based compound is reduced by living cells to give formazan. The amount of formazan formed is directly proportional to the number of living cells in the culture. Each cell line was incubated in microliter dishes for 48 hours before adding the medicaments. Cisplatin or Au55 was added, followed by an incubation for 72 or 24 hours. Subsequently, the MTT assays were carried out following Promega's information.
(§2) Table 2 below depicts the inhibitory concentrations of cisplatin and [Au55] incubations with various cell lines over 72 and 24 hours, respectively. The IC50 data were calculated from the graphs obtained from the in vitro cytotoxicity assays MTT. Each experiment was repeated three times independently from one another by way of determination in triplicate.

[1] = tested on: MOR/P lung cancer cells, cisplatin-sensitive; test: In-vitro cytotoxicity MTT assay (Example 4); type: cell-based, human; conditions: 72 h
Experimental: as §1, §2

U205 osteosarcoma = test: In-vitro cytotoxicity MTT assay (Example 4); type: cell-based, human; conditions: 72 h, read-out: IC50 cisplatin 72 h
Experimental: as §1, §2

[2] = tested on: HeLa cervical cancer cells; test: In-vitro cytotoxicity MTT assay (Example 4); type: cell-based, human; conditions: 72 h, read-out: IC50 cisplatin 72 h
Experimental: as §1, §2

[3] = In-vitro cytotoxicity MTT assay (Example 4); type: cell-based, human; conditions: Hek, 72 h; read-out: IC50 cisplatin 72 h
Experimental: as §1, §2

MV3 metastatic melanoma = test: In-vitro cytotoxicity MTT assay (Example 4); type: cell-based, human; conditions: 72 h, read-out: IC50 cisplatin 72 h
Experimental: as §1, §2

BLM metastatic melanoma = test: In-vitro cytotoxicity MTT assay (Example 4); type: cell-based, human; conditions: 72 h, read-out: IC50 cisplatin 72 h
Experimental: as §1, §2

[4] = tested on: MOR/CPR lung cancer cells, cisplatin-resistant; test: In-vitro cytotoxicity MTT assay (Example 4); type: cell-based, human
Experimental: as §1
Diagram 4 relates to in-vitro cytotoxicity assays on cisplatin-resistant MOR/CPR lung tumor cells, incubated with different concentrations of Au55(Ph2PC6H4SO3H)12Cl6 [Au55] for 24 hours. Each point represents 3 experiments carried out independently of one another and repeated in each case three times.
Diagramm 5 relates to in-vitro cytotoxicity assays on cisplatin-resistant MOR/CPR lung tumor cells incubated with different concentrations of free ligand, Ph2PC6H4SO3H, for 24 hours. Each point represents 3 independent experiments repeated in each case in triplicate.
Table 2 below depicts the inhibitory concentrations of cisplatin and [Au55] incubations with various cell lines over 72 and 24 hours, respectively. The IC50 data were calculated from the graphs obtained from the in vitro cytotoxicity assays MTT. […]

[5] = tested on: MOR/P lung cancer cells (cisplatin-sensitive); test: In-vitro cell toxicity, MTT colorimetry assay (Example 2); type: cell-based, human; conditions: comparison value, incubation not stated
Experimental: (§3) The in-vitro cytotoxicity properties of the gold-55 particles (Au55) prepared in example 1. C) were carried out on HeLa cancer cells and on MOR/P and MOR/CPR lung cancer cells. MOR/P cells are sensitive to cisplatin, while MOR/CPR cells are resistant to cisplatin.
(§4) The HeLa cells were grown on a DMEM medium at 37° C. in a 5% CO2 atmosphere. The medium had been supplemented with 10% strength FCS serum and antibiotics. Daughter cultures were generated twice weekly. The MOR/P and MOR/CPR cells were grown on an RPMI 1640 medium at 37° C. in a 5% CO2 atmosphere. Said medium had likewise been supplemented with 10% strength FCS serum and antibiotics. Here too, daughter cultures were generated twice weekly.
(§5) The in-vitro cytotoxicity of the Au55 particles was determined in the following manner using 96-well microtiter plates and an MTT colorimetry assay (CellTiter 96® Aqueous One Solution Cell Proliferation Assay, Promega):
(§6) Cultures of each cell line were applied at a concentration of 1—10^5 cells/ml to the microtiter plates and grown in the above-described media at 37° C. in a 5% CO2 atmosphere for 72 hours. […]
(§7) Absorption at 490 nm was measured for each well of each microtiter plate by using a 96-well microtiter plate reader. The absorption measured at 490 nm was plotted as a function of the Au55 particle concentration and the IC50 value was determined.

[6] = tested on: MOR/CPR lung cancer cells (cisplatin-resistant); test: as above; type: cell-based, human; conditions: comparison value, incubation not stated
Experimental: as §3, §4, §5, §6, §7

## N.N.[Cl][Pt][Cl] [cisplatin, cis-diaminodichloroplatinum(II)]
MC3 normal bone cells
  IC50: 26.1 ± 1.27 µM
[1]
  IC50: 3.3 ± 0.3 µM
U205 osteosarcoma
  IC50: 11.2 ± 2.02 µM
[2]
  IC50: 7.93 ± 0.95 µM
[3]
  IC50: 20.1 ± 6 µM
MV3 metastatic melanoma
  IC50: > 50 µM
BLM metastatic melanoma
  IC50: 54.7 ± 7.6 µM
[4]; 72 h
  IC50: 7.1 ± 1.2 µM
[5]
  IC50: 3.3 ± 0.3 µM
[6]
  IC50: 7.1 ± 1.2 µM

## O=S(=O)(O)c1cccc(P(c2ccccc2)c2ccccc2)c1 [ligand molecules, Ph2PC6H4SO3H]
[4]; different concentrations of free ligand, 24 hours
  Influence of the ligand molecules themselves on the life span of the cells: cannot be detected
